In patent publication US8222022B2, “Tri-functionalized cryptophane biosensors” (The Trustees of the University of Pennsylvania, priority 2008, dated 2012):

Legend:
[1] = Xenon binding by fluorescence quenching; details: 293 K, phosphate buffer
Description: Steady-state fluorescence spectra were acquired using a Varian Cary Eclipse fluorimeter equipped with a Peltier multicell holder for temperature control. Concentration measurements necessary for fluorescence work were obtained using an Agilent 8453 UV-Vis spectrophotometer. Xenon binding determination by fluorescence quenching was performed. The quantum yield of tri-acid cryptophane was measured relative to tryptophan.
The xenon affinity of tricarboxylate cryptophane was studied by fluorescence quenching (FIG. 2) and isothermal titration calorimetry (ITC) (FIG. 3). […] As in a previous fluorescence quenching study with TTPC, temperature-equilibrated solutions of xenon-saturated water were added sequentially by syringe to a septum-sealed fluorescence cuvette and fluorescence intensity measurements were taken. […]
A saturated xenon solution at 310 K ([Xe]=3.3 mM) was titrated into the septum-sealed cuvette by gas-tight syringe. […] In all cases, fluorescence spectra were collected after thermal equilibration at 293 K (FIG. 2)
The fluorescence maxima were fitted to a single-site binding model using the following relationship.
At xenon saturation, [Xe]=5.05 mM at 293 K and 1 atm, the cryptophane fluorescence was half quenched (Fo/F=2). No cryptophane impurities or concentration dependent phenomena were observed that might also contribute to partial fluorescence quenching. […]

[2] = Xenon binding by ITC in human plasma; details: Plasma 310 K
Description: (§1) Xenon binding was also determined by isothermal titration calorimetry (ITC), which directly measured the heat released during Xe association. ITC measurements were undertaken in 20 mM, pH 7.5 phosphate buffer at 293 K and 310 K as well as in human plasma at 310 K (FIG. 3).
From Table 5 and the known thermodynamics of xenon partitioning into water, an upper limit of ΔH=−7.5 kcal/mol was calculated for the enthalpy of xenon binding to I. Thus, the measured ΔH of −6.04 kcal/mol, although larger than in buffer, appeared reasonable.

[3] = Xenon binding by isothermal titration calorimetry (ITC) in phosphate buffer
Description: ITC samples were prepared and experiments were performed using a MicroCal VP-ITC titration microcalorimeter (Northampton, Mass.) at 293 K. Standard protocols and data analysis were used. Control enthalpograms are given in the appended figures.
In order to confirm the association constants obtained by fluorescence quenching, ITC experiments were performed.
as §1
The association constants obtained from fits of ITC data at 293 K (KA=1.73×10^4 M^−1, Table 5) and fluorescence quenching were in excellent agreement. […] This was likely a consequence of the 20 water molecules that make up the first solvation sphere of the Xe atom in aqueous solution.

human isozyme II (CAII) = human isozyme II (CAII) (Homo sapiens, UniProt P00918); assay: Binding to carbonic anhydrase II in solution (ITC); details: read-out: KD against CAII
From the text: The ^129Xe isotope has a spin-½ nucleus, a >200 ppm chemical shift window in water, and a natural isotopic abundance of 26% (commercially available up to 86%), which makes it an appealing biomolecular probe for MRI. Moreover, ^129Xe can be laser polarized to enhance MRI signals ˜10,000-fold.

[4] = Aqueous solubility (visual observation of precipitation, dissolution in aqueous base); details: visual observation of precipitation during titration
From the text: Steric congestion near the carboxylic acid group decreases acidity by preventing efficient solvation of the carboxylate anion. […] Each acid group attached to TAAC can be approximated as being an acetic acid attached to a ˜1 nm diameter nonpolar sphere. Water molecules surrounding the nonpolar cryptophane surface must be ordered, a consequence of the hydrophobic effect. Carboxylate solvation must directly compete with this ordered solvation sphere necessary for the cryptophane core.

[5] = comparison value; cited from earlier work
[6] = 293 K, 20 mM pH 7.5 phosphate buffer

## tri-triazole propionate cryptophane [TTPC]
[1]
  association constant (Xe) by fluorescence quenching: 17,000±1800 M^−1
[2]
  KA: 2.19 ± 0.22 M^−1 × 10^4
  TΔS: 0.12 kcal/mol
  TΔS (contribution of entropy): 0.12
  measured ΔH of xenon binding: -6.04 kcal/mol
  ΔG: -6.16 kcal/mol
  ΔH: -6.04 ± 0.33 kcal/mol
[3]; Buffer 293 K
  KA: 1.73 ± 0.17 M^−1 × 10^4
  TΔS: 2.55 kcal/mol
  ΔG: -5.69 kcal/mol
  ΔH: -3.14 ± 0.20 kcal/mol
[3]; Buffer 310 K
  KA: 3.01 ± 0.26 M^−1 × 10^4
  TΔS: 2.80 kcal/mol
  ΔG: -6.36 kcal/mol
  ΔH: -3.56 ± 0.13 kcal/mol
[3]; ITC at 293 K (Table 2)
  KA: 1.70 M^−1 × 10^4
  TΔS: 2.55 kcal/mol
  ΔG: -5.69 kcal/mol
  ΔH: -3.14 kcal/mol
[3]; calculated from Table 5 and known thermodynamics of xenon partitioning into water
  upper limit of ΔH for the enthalpy of xenon binding: ≤ -7.5 kcal/mol
[3]; phosphate buffer, 293 and 310 K
  ΔS of xenon binding: 9.0 cal/mol K
Human isozyme II (CAII)
  Kd: 60 ± 20 nM

## COc1cc2c3cc1OCCOc1cc4c(cc1OCC(=O)O)Cc1cc5c(OCC(=O)O)cc1Cc1cc(c(OCC(=O)O)cc1C4)OCCOc1cc(c(cc1OC)C3)Cc1cc(OC)c(cc1C2)OCCO5 [TAAC, Tri-Acetic Acid Cryptophane]
[4]
  deprotonations required for aqueous solubility: required all three acids to be deprotonated for aqueous solubility
[1]
  association constant (Xe) by fluorescence quenching: 33,000±2000 M^−1
Acid-base titration
  pKa: 4.1
[3]; 293 K
  additional stabilization of the Xe@TAAC complex relative to Xe@TTPC: -0.37 kcal/mol
[3]; [6]
  xenon association constant KA by ITC: 33,000±3000 M^−1
  ΔG of xenon binding: -6.09 kcal/mol
  ΔH of xenon binding: -4.3 ± 0.7 kcal/mol
  ΔS of xenon binding: 5.9 cal*mol^−1*K^−1
[3]; 293 K, by ITC and fluorescence quenching assay
  xenon association constant: 33,000 M^−1
[3]; 310 K, extrapolated from the 293 K value
  xenon association constant: ~50,000 M^−1
[3]; ITC at 293 K (Table 2)
  KA: 3.33 ± 0.28 M^−1 × 10^4
  TΔS: 1.72 kcal/mol
  ΔG: -6.06 kcal/mol
  ΔH: -4.34 ± 0.66 kcal/mol

## COc1ccccc1OCC(=O)O [2-(2-methoxyphenoxy)acetic acid]
[5]
  pKa of analogous acid (comparison): 3.23
